Measurements: paper PMC10153383, “Pharmacophore Variants of the Macrocyclic Peptide Triazole Inactivator of HIV-1 Env” (Research Square, 2023)
*1 amine or outer side, *2 acyl side, *3 side chain or, on linkers, in order; H or OH if unused. Where a SMILES comes first, the peptide text is derived from it. Bridges are numbered along the chain shown (N, C = ends). [ ]: non-standard residue; d: D form. X1 = O=C([C@@H]1C[C@H](n2cc(-c3ccc(-c4cccs4)cc3)nn2)CN1[*:1])[*:2]; Trp(5-Br) = N[C@@H](Cc1c[nH]c2ccc(Br)cc12)C(=O)O; Trp(1-Me) = Cn1cc(C[C@H](N)C(=O)O)c2ccccc21

Molecular target: T1, YU2 gp120 (Human immunodeficiency virus type 1 group M subtype B, UniProt P35961)
T1 construct: The DNA for gp120YU-2 in pcDNA3.1 vector for transient transfection; made in house; host or cells: HEK-293F
Format: binding, HIV-1
From the text: A state-of-the-art Biacore S200 SPR optical biosensor, which can resolve dissociation rates of 0.1–1.0 s^−1, was employed to measure the YU2 gp120 binding kinetics of cPT’s. […] The insets in Fig. 3 show the binding isotherms plotted from the binding signals at steady state, as a function of peptide concentration. Reproducibility of the SPR binding assays was verified by running experiments at gp120 densities ranging from 10 to 29 RU/kDa. […] The calculated apparent (KD), the steady state affinities (eq KD) and experimental Rmax or maximum binding capacities for each gp120 surface are reported.
SPR experiments were performed on a Biacore S200 biosensor (Cytiva Global Life Sciences Solutions) at 25°C using PBS-P (10 mM Phosphate, 150 mM NaCl, pH 7.4, 0.005% P-20 and 2 or 5%DMSO) as the running and sample buffers. […] The 9 to 10 cPT concentrations were injected in duplicate spanning 1000-fold (~ 0.001 to 2.0 μM) at a flow rate of 75–100 μL/min where associations were monitored for 3 minutes and the final dissociation phase in running buffer monitored for 5 minutes for complete dissociation or by injecting two 9-second pulses of 10 mM glycine pH 2.0 to remove any bound analyte. […]

SMILES	increase in dissociation rate relative to parent peptide (SPR, MG-I-13 vs AAR029N2, MG-II-55 vs MG-II-20)	equilibrium binding isotherm KD, fold lower (affinity) versus AAR029N2 (SPR steady state isotherm, Fig. 3C inset)
CC[C@H](C)[C@@H]1NC(=O)[C@H](CC(N)=O)NC(=O)[C@@H](N)CC(=O)NCCCC[C@@H](C(N)=O)NC(=O)[C@H](Cc2c[nH]c3ccc(Br)cc23)NC(=O)[C@@H]2C[C@H](n3cc(-c4ccc(-c5cccs5)cc4)nn3)CN2C1=O [MG-I-13] (H-DNI[X1][Trp(5-Br)]K-NH2; lactam 1-6; N-terminus and C-terminus assumed)	2.5 fold	–
CC[C@H](C)[C@@H]1NC(=O)[C@H](CC(N)=O)NC(=O)[C@@H](N)CC(=O)NCCCC[C@@H](C(N)=O)NC(=O)[C@H](Cc2cn(C)c3ccccc23)NC(=O)[C@@H]2C[C@H](n3cc(-c4ccc(-c5cccs5)cc4)nn3)CN2C1=O [MG-II-39] (H-DNI[X1][Trp(1-Me)]K-NH2; lactam 1-6; N-terminus and C-terminus assumed)	–	5 fold
